Test results as given in US6355799B1, “Substituted benzene compounds, process for their preparation, and herbicidal and defoliant compositions containing them” (ISK Americas Incorporated, priority 1997, dated 2002).

How the values were obtained:
Type in all cases: in vivo
[1] = system: redroot pigweed (Amaranthus retroflexus, AMARE); assay: Pre-emerge test, greenhouse herbicide activity screening; details: pre-emerge, rated 14 days after application, 0 = no damage, 100 = complete death
Summary of the method: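 Compounds in acetone were track-sprayed at 15-1000 g ai/ha (187 l/ha) on sandy loam pots: pre-emerge one day after seeding, post-emerge at 2-3 leaf stage with 0.25% v/v non-ionic surfactant. Phytotoxicity was rated 14 days later on a 0 (no damage) to 100 (complete death) scale.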

[2] = system: barnyardgrass (Echinochloa crus-galli, ECHCG); assay: as above; details: pre-emerge, rated 14 days after application, 0 = no damage, 100 = complete death
Summary of the method: (§1)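 Visual ratings on a 0-100 scale (0 no damage, 100 all plants dead) were taken at 14 days after treatment. Rates of 15-1000 g ai/ha in acetone, 187 l/ha, were sprayed onto soil one day after planting (pre-emerge) or onto 2-3 leaf plants with 0.25% v/v surfactant (post-emerge).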

[3] = system: green foxtail (Setaria viridis, SETVI); assay: as above; details: pre-emerge, rated 14 days after application, 0 = no damage, 100 = complete death
Summary of the method: as §1

[4] = system: ivyleaf morningglory (Ipomoea hederacea, IPOHE); assay: as above; details: pre-emerge, rated 14 days after application, 0 = no damage, 100 = complete death
Summary of the method: as §1

[5] = system: johnsongrass (Sorghum halepense, SORHA); assay: as above; details: pre-emerge, rated 14 days after application, 0 = no damage, 100 = complete death
Summary of the method: as §1

[6] = system: lambsquarters (Chenopodium album, CHEAL); assay: as above; details: pre-emerge, rated 14 days after application, 0 = no damage, 100 = complete death
Summary of the method: as §1

[7] = system: large crabgrass (Digitaria sanguinalis, DIGSA); assay: as above; details: pre-emerge, rated 14 days after application, 0 = no damage, 100 = complete death
Summary of the method: as §1

[8] = system: sicklepod (Cassia obtusifolia, CASOB); assay: as above; details: pre-emerge, rated 14 days after application, 0 = no damage, 100 = complete death
Summary of the method: as §1

[9] = system: velvetleaf (Abutilon theophrasti, ABUTH); assay: as above; details: pre-emerge, rated 14 days after application, 0 = no damage, 100 = complete death
Summary of the method: as §1

[10] = system: field corn (Zea mays L., var. Dekalb 535, CORN); assay: Pre-emerge test, crop safety; details: pre-emerge, rated 14 days after application, 0 = no damage, 100 = complete death
Summary of the method: (§2)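 Plants grown in 10 cm pots of sandy loam mix received acetone-dissolved compounds through a moving flat-fan nozzle. Doses ranged from 15 to 1000 g ai/ha. Pre-emerge pots were seeded one day earlier, post-emerge pots 8–21 days earlier. Fourteen days on, each pot was graded 0–100 for damage.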

[11] = system: upland rice (Oryza sp., var. Tebonnet, RICE); assay: Pre-emerge test, crop safety; details: pre-emerge, rated 14 days after application, 0 = no damage, 100 = complete death
Summary of the method: as §2

[12] = system: barnyardgrass (Echinochloa crus-galli, ECHCG); assay: Post-emerge test, greenhouse herbicide activity screening; details: phytotoxicity rating 0-100 (0 no damage, 100 complete death), 14 days after application
Summary of the method: (§3)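 Each test used a mechanized track sprayer delivering 187 l/ha of acetone solution at 15–1000 g ai/ha. Post-emerge foliage at 2–3 leaves was treated with added 0.25% v/v non-ionic surfactant and bottom-watered only. Injury was assessed on day 14, where 100 means total kill.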

[13] = system: green foxtail (Setaria viridis, SETVI); assay: as above; details: phytotoxicity rating 0-100 (0 no damage, 100 complete death), 14 days after application
Summary of the method: as §3

[14] = system: ivyleaf morningglory (Ipomoea hederacea, IPOHE); assay: as above; details: phytotoxicity rating 0-100 (0 no damage, 100 complete death), 14 days after application
Summary of the method: as §3

[15] = system: johnsongrass (Sorghum halepense, SORHA); assay: as above; details: phytotoxicity rating 0-100 (0 no damage, 100 complete death), 14 days after application
Summary of the method: as §3

[16] = system: lambsquarters (Chenopodium album, CHEAL); assay: as above; details: phytotoxicity rating 0-100 (0 no damage, 100 complete death), 14 days after application
Summary of the method: as §3

[17] = system: large crabgrass (Digitaria sanguinalis, DIGSA); assay: as above; details: phytotoxicity rating 0-100 (0 no damage, 100 complete death), 14 days after application
Summary of the method: as §3

[18] = system: redroot pigweed (Amaranthus retroflexus, AMARE); assay: as above; details: phytotoxicity rating 0-100 (0 no damage, 100 complete death), 14 days after application
Summary of the method: as §3

[19] = system: sicklepod (Cassia obtusifolia, CASOB); assay: as above; details: phytotoxicity rating 0-100 (0 no damage, 100 complete death), 14 days after application
Summary of the method: as §3

[20] = system: velvetleaf (Abutilon theophrasti, ABUTH); assay: as above; details: phytotoxicity rating 0-100 (0 no damage, 100 complete death), 14 days after application
Summary of the method: as §3

[21] = system: field corn (Zea mays L., var. Dekalb 535, CORN); assay: Post-emerge test, crop safety; details: phytotoxicity rating 0-100 (0 no damage, 100 complete death), 14 days after application
Summary of the method: as §1

[22] = system: upland rice (Oryza sp., var. Tebonnet, RICE); assay: Post-emerge test, crop safety; details: phytotoxicity rating 0-100 (0 no damage, 100 complete death), 14 days after application
Summary of the method: as §1

## CCOC(=O)COc1c(Cl)cc(F)c(-n2c(=O)cc(C(F)(F)F)n(C)c2=O)c1N [Compound 1-59]
[1]; 63 g ai/ha
  Pre-emerge Herbicidal Activity AMARE (phytotoxicity rating, scale 0-100): 100
[1]; 250 g ai/ha
  Pre-emerge Herbicidal Activity AMARE (phytotoxicity rating, scale 0-100): 100
[2]; 63 g ai/ha
  Pre-emerge Herbicidal Activity ECHCG (phytotoxicity rating, scale 0-100): 0
[2]; 250 g ai/ha
  Pre-emerge Herbicidal Activity ECHCG (phytotoxicity rating, scale 0-100): 70
[3]; 63 g ai/ha
  Pre-emerge Herbicidal Activity SETVI (phytotoxicity rating, scale 0-100): 30
[3]; 250 g ai/ha
  Pre-emerge Herbicidal Activity SETVI (phytotoxicity rating, scale 0-100): 90
[4]; 63 g ai/ha
  Pre-emerge Herbicidal Activity IPOHE (phytotoxicity rating, scale 0-100): 100
[4]; 250 g ai/ha
  Pre-emerge Herbicidal Activity IPOHE (phytotoxicity rating, scale 0-100): 100
[5]; 63 g ai/ha
  Pre-emerge Herbicidal Activity SORHA (phytotoxicity rating, scale 0-100): 30
[5]; 250 g ai/ha
  Pre-emerge Herbicidal Activity SORHA (phytotoxicity rating, scale 0-100): 85
[6]; 63 g ai/ha
  Pre-emerge Herbicidal Activity CHEAL (phytotoxicity rating, scale 0-100): 100
[6]; 250 g ai/ha
  Pre-emerge Herbicidal Activity CHEAL (phytotoxicity rating, scale 0-100): 100
[7]; 63 g ai/ha
  Pre-emerge Herbicidal Activity DIGSA (phytotoxicity rating, scale 0-100): 30
[7]; 250 g ai/ha
  Pre-emerge Herbicidal Activity DIGSA (phytotoxicity rating, scale 0-100): 90
[8]; 63 g ai/ha
  Pre-emerge Herbicidal Activity CASOB (phytotoxicity rating, scale 0-100): 30
[8]; 250 g ai/ha
  Pre-emerge Herbicidal Activity CASOB (phytotoxicity rating, scale 0-100): 80
[9]; 63 g ai/ha
  Pre-emerge Herbicidal Activity ABUTH (phytotoxicity rating, scale 0-100): 100
[9]; 250 g ai/ha
  Pre-emerge Herbicidal Activity ABUTH (phytotoxicity rating, scale 0-100): 100
[10]; 63 g ai/ha
  Pre-emerge crop damage CORN (phytotoxicity rating, scale 0-100): 30
[10]; 250 g ai/ha
  Pre-emerge crop damage CORN (phytotoxicity rating, scale 0-100): 90
[11]; 63 g ai/ha
  Pre-emerge crop damage RICE (phytotoxicity rating, scale 0-100): 30
[11]; 250 g ai/ha
  Pre-emerge crop damage RICE (phytotoxicity rating, scale 0-100): 70
[12]; 63 g ai/ha
  Post-emerge Herbicidal Activity ECHCG: 30
[12]; 250 g ai/ha
  Post-emerge Herbicidal Activity ECHCG: 80
[13]; 63 g ai/ha
  Post-emerge Herbicidal Activity SETVI: 10
[13]; 250 g ai/ha
  Post-emerge Herbicidal Activity SETVI: 70
[14]; 63 g ai/ha
  Post-emerge Herbicidal Activity IPOHE: 100
[14]; 250 g ai/ha
  Post-emerge Herbicidal Activity IPOHE: 100
[15]; 63 g ai/ha
  Post-emerge Herbicidal Activity SORHA: 10
[15]; 250 g ai/ha
  Post-emerge Herbicidal Activity SORHA: 50
[16]; 63 g ai/ha
  Post-emerge Herbicidal Activity CHEAL: 100
[16]; 250 g ai/ha
  Post-emerge Herbicidal Activity CHEAL: 100
[17]; 63 g ai/ha
  Post-emerge Herbicidal Activity DIGSA: 0
[17]; 250 g ai/ha
  Post-emerge Herbicidal Activity DIGSA: 40
[18]; 63 g ai/ha
  Post-emerge Herbicidal Activity AMARE: 95
[18]; 250 g ai/ha
  Post-emerge Herbicidal Activity AMARE: 100
[19]; 63 g ai/ha
  Post-emerge Herbicidal Activity CASOB: 40
[19]; 250 g ai/ha
  Post-emerge Herbicidal Activity CASOB: 100
[20]; 63 g ai/ha
  Post-emerge Herbicidal Activity ABUTH: 100
[20]; 250 g ai/ha
  Post-emerge Herbicidal Activity ABUTH: 100
[21]; 63 g ai/ha
  Post-emerge Herbicidal Activity CORN (crop damage): 45
[21]; 250 g ai/ha
  Post-emerge Herbicidal Activity CORN (crop damage): 80
[22]; 63 g ai/ha
  Post-emerge Herbicidal Activity RICE (crop damage): 30
[22]; 250 g ai/ha
  Post-emerge Herbicidal Activity RICE (crop damage): 60

## CCOC(=O)C(C)Oc1c(Cl)cc(F)c(-n2c(=O)cc(C(F)(F)F)n(C)c2=O)c1N (stereo not shown) [Compound 1-60]
[1]; 63 g ai/ha
  Pre-emerge Herbicidal Activity AMARE (phytotoxicity rating, scale 0-100): 100
[1]; 250 g ai/ha
  Pre-emerge Herbicidal Activity AMARE (phytotoxicity rating, scale 0-100): 100
[2]; 63 g ai/ha
  Pre-emerge Herbicidal Activity ECHCG (phytotoxicity rating, scale 0-100): 50
[2]; 250 g ai/ha
  Pre-emerge Herbicidal Activity ECHCG (phytotoxicity rating, scale 0-100): 95
[3]; 63 g ai/ha
  Pre-emerge Herbicidal Activity SETVI (phytotoxicity rating, scale 0-100): 95
[3]; 250 g ai/ha
  Pre-emerge Herbicidal Activity SETVI (phytotoxicity rating, scale 0-100): 100
[4]; 63 g ai/ha
  Pre-emerge Herbicidal Activity IPOHE (phytotoxicity rating, scale 0-100): 90
[4]; 250 g ai/ha
  Pre-emerge Herbicidal Activity IPOHE (phytotoxicity rating, scale 0-100): 100
[5]; 63 g ai/ha
  Pre-emerge Herbicidal Activity SORHA (phytotoxicity rating, scale 0-100): 80
[5]; 250 g ai/ha
  Pre-emerge Herbicidal Activity SORHA (phytotoxicity rating, scale 0-100): 100
[6]; 63 g ai/ha
  Pre-emerge Herbicidal Activity CHEAL (phytotoxicity rating, scale 0-100): 100
[6]; 250 g ai/ha
  Pre-emerge Herbicidal Activity CHEAL (phytotoxicity rating, scale 0-100): 100
[7]; 63 g ai/ha
  Pre-emerge Herbicidal Activity DIGSA (phytotoxicity rating, scale 0-100): 95
[7]; 250 g ai/ha
  Pre-emerge Herbicidal Activity DIGSA (phytotoxicity rating, scale 0-100): 100
[8]; 63 g ai/ha
  Pre-emerge Herbicidal Activity CASOB (phytotoxicity rating, scale 0-100): 70
[8]; 250 g ai/ha
  Pre-emerge Herbicidal Activity CASOB (phytotoxicity rating, scale 0-100): 100
[9]; 63 g ai/ha
  Pre-emerge Herbicidal Activity ABUTH (phytotoxicity rating, scale 0-100): 100
[9]; 250 g ai/ha
  Pre-emerge Herbicidal Activity ABUTH (phytotoxicity rating, scale 0-100): 100
[10]; 63 g ai/ha
  Pre-emerge crop damage CORN (phytotoxicity rating, scale 0-100): 50
[10]; 250 g ai/ha
  Pre-emerge crop damage CORN (phytotoxicity rating, scale 0-100): 95
[11]; 63 g ai/ha
  Pre-emerge crop damage RICE (phytotoxicity rating, scale 0-100): 40
[11]; 250 g ai/ha
  Pre-emerge crop damage RICE (phytotoxicity rating, scale 0-100): 95
[12]; 63 g ai/ha
  Post-emerge Herbicidal Activity ECHCG: 0
[12]; 250 g ai/ha
  Post-emerge Herbicidal Activity ECHCG: 20
[13]; 63 g ai/ha
  Post-emerge Herbicidal Activity SETVI: 0
[13]; 250 g ai/ha
  Post-emerge Herbicidal Activity SETVI: 10
[14]; 63 g ai/ha
  Post-emerge Herbicidal Activity IPOHE: 90
[14]; 250 g ai/ha
  Post-emerge Herbicidal Activity IPOHE: 100
[15]; 63 g ai/ha
  Post-emerge Herbicidal Activity SORHA: 0
[15]; 250 g ai/ha
  Post-emerge Herbicidal Activity SORHA: 20
[16]; 63 g ai/ha
  Post-emerge Herbicidal Activity CHEAL: 99
[16]; 250 g ai/ha
  Post-emerge Herbicidal Activity CHEAL: 100
[17]; 63 g ai/ha
  Post-emerge Herbicidal Activity DIGSA: 0
[17]; 250 g ai/ha
  Post-emerge Herbicidal Activity DIGSA: 50
[18]; 63 g ai/ha
  Post-emerge Herbicidal Activity AMARE: 90
[18]; 250 g ai/ha
  Post-emerge Herbicidal Activity AMARE: 100
[19]; 63 g ai/ha
  Post-emerge Herbicidal Activity CASOB: 50
[19]; 250 g ai/ha
  Post-emerge Herbicidal Activity CASOB: 90
[20]; 63 g ai/ha
  Post-emerge Herbicidal Activity ABUTH: 100
[20]; 250 g ai/ha
  Post-emerge Herbicidal Activity ABUTH: 100
[21]; 63 g ai/ha
  Post-emerge Herbicidal Activity CORN (crop damage): 0
[21]; 250 g ai/ha
  Post-emerge Herbicidal Activity CORN (crop damage): 50
[22]; 63 g ai/ha
  Post-emerge Herbicidal Activity RICE (crop damage): 10
[22]; 250 g ai/ha
  Post-emerge Herbicidal Activity RICE (crop damage): 40
